Test results from patent publication US20200129531A1, “USE OF WITHANIA SOMNIFERA EXTRACT TO PROTECT AGAINST AIR POLLUTION RELATED DISEASES” (DSM IP Assets B.V., priority 2017, published 2020).

Legend:
Nrf2 = assay: Luciferase reporter assay using H411E-ARE8L cells (Nrf2 activation); settings: for Nrf-2 activity, Normalized data: R-sulforaphane set to 1.0, DMSO 0
Procedure: Luciferase Reporter Assay Using H411E-ARE8L Cells:
The medium for H411E-ARE8L cells was Dulbecco's Modified Eagle Medium (DMEM) high glucose containing heat inactivated 10% fetal bovine Serum (FBS). The media was exchanged every two to three-days. The DMEM assay medium used charcoal treated FBS (DMEMct). The transactivation assay was performed in 96 well plates. The plates were seeded with approximately 40′000 cells per well in 100 μl DMEMct and incubated over night at 37° C. Then the test compounds were diluted in DMEDct and given to the cells as described below. The cells were incubated for at least further 16 h at 37° C. and 5% CO2. Cells were equilibrated to room temperature. Lysis of the cells was done by adding 100 μL lysis solution, Steady-Glo© luciferase buffer according to the manufacturer (Promega) containing 0.5 mM DTT per well and incubated for 10 min at room temperature with gentle shaking. The luminescence was measured within 2 hours after incubation on a luminometer (Mithras, Berthold Technologies).
The negative control were cells in 0.5% DMSO.
All extracts, fractions and pure compounds were tested for concentrations that induce toxicity. Non-toxic concentrations were then selected for treating cells as describes in the methods section.

IL-6 [1] = assay: IL-6 secretion of BEAS-2B cells treated with Diesel Particulate Matter; assay type: cell-based, human; settings: for IL-6 / IL-6 % of PM + DMSO: 24 h
From the text: (§1) The human bronchial epithelial cell line BEAS-2B was from ATCC (American Type Culture Collection, Manassas, Va.) and cultured in Bronchial Epithelial cell Growth Medium (BEGM, Lonza, Wakersville, Md.) in CellBIND® surface plastic flasks (Corning Inc., Corning, N.Y.). The adenocarcinomic human alveolar basal epithelial A549 cell line was obtained from ATCC and cultured in Kaighn's Modification of Ham's F-12 Medium (F-12K medium) (Life Technologies, USA), supplemented with 10% FBS (Sigma, Saint-Louis, Mo.). These cells were cultured at 37° C. in a humidified atmosphere containing 5% CO2.
(§2) BEAS-2B cells were seeded in 12-well CellBIND® surface culture plates (Corning Inc.) at 3 to 4×10^5 cells per well. A549 cells were seeded in 12-well plates at 2×10^5 cells per well.
(§3) Diesel Particulate Matter (Standard Reference Material SRM 1650b, National Institute of Standards & Technology, NIST, Gaithersburg, Md.) at 80 mg/ml DMSO (100%) were sonicated for 5 min and thereafter diluted 400 fold in medium. This dilution was twofold further diluted for the assay.
(§4) After 24 h, cells were treated with the diluted Diesel Particulate Matter at 100 μg/ml and in the presence of different concentrations of Withania somnifera extracts, other plant extracts, fractions and compounds as indicated. The final DSMO concentrations were 0.175%.
(§5) Untreated cells or cells treated with 0.175% DMSO were used as controls. After 24 h, cell supernatants were collected.
(§6) The concentrations of IL-6 and IL-8 in the supernatants were determined by Luminex kits (BIO-RAD Laboratories, Hercules, Calif.) and used in the LiquiChip Workstation IS 200 (Qiagen, Hilden, Germany). The data were evaluated with the LiquiChip Analyser software (Qiagen).

MCP-1 = MCP-1 secretion of A549 cells treated with Diesel Particulate Matter; assay type: cell-based, human; settings: for effect on PM-induced MCP-1 secretion (in words): A549; for MCP-1 / MCP-1 % of PM + DMSO: Table 9, A549, 24 h
From the text: The human bronchial epithelial cell line BEAS-2B was from ATCC (American Type Culture Collection, Manassas, Va.) and cultured in Bronchial Epithelial cell Growth Medium (BEGM, Lonza, Wakersville, Md.) in CellBIND® surface plastic flasks (Corning Inc., Corning, N.Y.). The adenocarcinomic human alveolar basal epithelial A549 cell line was obtained from ATCC and cultured in Kaighn's Modification of Ham's F-12 Medium (F-12K medium) (Life Technologies, USA), supplemented with 10% FBS (Sigma, Saint-Louis, Mo.). These cells were cultured at 37° C. in a humidified atmosphere containing 5% CO2. BEAS-2B cells were seeded in 12-well CellBIND® surface culture plates (Corning Inc.) at 3 to 4×10^5 cells per well. A549 cells were seeded in 12-well plates at 2×10^5 cells per well. […] This dilution was twofold further diluted for the assay. After 24 h, cells were treated with the diluted Diesel Particulate Matter at 100 μg/ml and in the presence of different concentrations of Withania somnifera extracts, other plant extracts, fractions and compounds as indicated. The final DSMO concentrations were 0.175%. Untreated cells or cells treated with 0.175% DMSO were used as controls. After 24 h, cell supernatants were collected.

IL-6 [2] = assay: IL-6 secretion of A549 cells treated with Diesel Particulate Matter; assay type: cell-based, human; settings: for IL-6 / IL-6 % of PM + DMSO: Table 5, A549, 24 h
From the text: as §1, §2, §3, §4, §5, §6

IL-8 = IL-8 secretion of A549 cells treated with Diesel Particulate Matter; assay type: cell-based, human; settings: for IL-8 / IL-8 % of PM + DMSO: Table 7, A549, 24 h
From the text: as §1, §2, §3, §4, §5, §6

PGE2 = PGE2 secretion of BEAS-2B cells treated with Diesel Particulate Matter; assay type: cell-based, human; settings: Table 10, BEAS-2B, 24 h
From the text: as §1, §2, §3, §4, §5
Secreted PGE2 was determined by Enzyme Immuno Assay (EIA) (Cayman Chemicals, Ann Harbor, […].).

NQO1 = assay: Endogenous Nrf2 activation assay using BEAS-2B cells: NQO1 mRNA expression; assay type: cell-based, human; settings: 0.1% DMSO set to 1
Procedure: (§7) The human bronchial epithelial cell line BEAS-2B was from ATCC (American Type Culture Collection, Manassas, Va.) and cultured in Bronchial Epithelial cell Growth Medium (BEGM, Lonza, Wakersville, Md.) in CellIBIND® surface plastic flasks (Corning Inc., Corning, N.Y.). BEAS-2B cells were seeded in 6-well CellIBIND® surface culture plates (Corning Inc.) at 1×10^6 cells per well and incubated at 37° C. with 5% CO2 for 24 hours.
(§8) A 100 mM R-Sulforaphane stock solution was prepared in DMSO (ABCAM, Cat. No. ab141971, Lot GR303041-2). The R-Sulforaphane stock was diluted in DMSO to obtain the desired final concentrations. Withania somnifera extract (NIG-018911) stock solution was prepared in DMSO.
(§9) After 24 h, cells were treated with different concentrations of Withania somnifera extract (5 μg/ml, 10 μg/ml, 25 μg/ml), R-Sulforaphane (2 μM, 5 μM, 10 μM) or DMSO (0.1%) and incubated at 37° C. with 5% CO2 for 4 hrs or 24 hrs. Each treatment was done in triplicate.
(§10) RNA extraction, cDNA synthesis and TaqMan based real-time PCR: After 4 hrs and 24 hrs cells were harvested in RLT buffer, RNA isolation was done using the RNeasy Mini Kit from Qiagen (Cat. No. 74106). cDNA was prepared with 2500 ng total RNA using SuperScript™ First-Strand Synthesis System for RT-PCR (Invitrogen, Cat. No. 11904-018)
(§11) In a 20 μL PCR reaction, a total input of […] of cDNA was amplified in the ABI 7900 HT real-time PCR System (Applied Biosystems) using the TaqMan® Fast Advanced Master Mix (LifeTechnologies Cat. No. 4444557), 50 nM primers, and 100 nM probe (VIC-TAMRA-labeled) for the 18S rRNA internal control
(§12) and 300 nM primers and 100 nM probe (FAM-TAMRA-labeled) for the gene of interest human
(§13) The thermal cycling profile consisted of 2 min at 50° C. for Uracil-N-glycosylase activation, 95° C. for 20 seconds for polymerase activation followed by 40 cycles 95° C. for 1 second and primer annealing at 60° C. for 20 seconds.
(§14) Relative gene expression was performed by subtracting threshold cycles (CT) for ribosomal RNA from the CT of the targeted gene (ΔCT). Relative mRNA levels were then calculated as 2^−ΔΔCT, where ΔΔCT refers to the ΔCT of […].

HMOX = assay: Endogenous Nrf2 activation assay using BEAS-2B cells: HMOX mRNA expression; assay type: cell-based, human; settings: 0.1% DMSO set to 1
Procedure: as §7, §8, §9, §10, §11, §12, §13, §14

BEAS-2B cells = assay: Toxicity / cell survival of BEAS-2B cells; assay type: cell-based, human; settings: at concentrations higher than 0.3 μg/ml
Procedure: (§15) Cell survival assays of the BEAS-2B and A549 cells were performed with AlamarBlue® Cell Viability Reagent (ThermoFisher Scientific) according to the protocol of the manufacturer. Non-toxic concentrations of the extracts, fractions and single compounds were selected for the assays.

A549 cells = assay: Toxicity / cell survival of A549 cells; assay type: cell-based, human; settings: concentrations higher than 0.31 μg/ml
Procedure: as §15

[3] = Table 3, 10 μg/ml + PM 100 μg/ml
[4] = Table 3, 0.3125 μg/ml + PM 100 μg/ml

CC1=C(C)C(=O)O[C@@H]([C@](C)(O)[C@H]2CC[C@H]3[C@@H]4[C@@H]5O[C@@H]5[C@@]5(O)CC=CC(=O)[C@]5(C)[C@H]4CC[C@]23C)C1 [Withanolide A, withanolide A]
Nrf-2 activity, Average (Nrf2; Conc. final 22.73 μg/ml): 4677 relative units of luciferase fluorescence
Nrf-2 activity, Normalized data (Nrf2; Conc. final 22.73 μg/ml): 0.0629
IL-6 (IL-6 [1]; [3]): 32.8 pg/mL
IL-6 % of PM + DMSO (IL-6 [1]; [3]): 131%
effect on PM-induced MCP-1 secretion (in words) (MCP-1): low, but non-significant decrease
MCP-1 (MCP-1; 10 μg/ml + PM 100 μg/ml): 790.7 pg/mL
MCP-1 % of PM + DMSO (MCP-1; 10 μg/ml + PM 100 μg/ml): 91%
effect on PM-induced IL-6 secretion (in words) (IL-6 [2]; A549): decrease
IL-6 (IL-6 [2]; 10 μg/ml + PM 100 μg/ml): 15.2 pg/mL
IL-6 % of PM + DMSO (IL-6 [2]; 10 μg/ml + PM 100 μg/ml): 120%
effect on IL-8 secretion (in words) (IL-8; A549, PM-induced): no effect
IL-8 (IL-8; 10 μg/ml + PM 100 μg/ml): 313.7 pg/mL
IL-8 % of PM + DMSO (IL-8; 10 μg/ml + PM 100 μg/ml): 103%
PGE2 (PGE2; 10 μg/ml + PM 100 μg/ml): 34.7 pg/mL
PGE2 % of PM + DMSO (PGE2; 10 μg/ml + PM 100 μg/ml): 91%

C[S@@+]([O-])CCCCN=C=S [R-Sulforaphane, R-sulforaphane]
Nrf-2 activity, Average (Nrf2; Conc. final 4.55 μg/ml): 29384 relative units of luciferase fluorescence
Nrf-2 activity, Normalized data (Nrf2; Conc. final 4.55 μg/ml): 1.0000
effect on PM-induced IL-6 secretion (in words) (IL-6 [1]; concentration not given): significantly reduced
effect on PM-induced MCP-1 secretion (in words) (MCP-1): clear inhibition
reduction of PM-induced IL-6 secretion (IL-6 [2]; A549, concentration not given): about twofold
Relative mRNA expression level at 4 h (NQO1) (NQO1; 2 μM): 1.60
Relative mRNA expression level at 24 h (NQO1) (NQO1; 2 μM): 4.66
Relative mRNA expression level at 4 h (NQO1) (NQO1; 5 μM): 2.26
Relative mRNA expression level at 24 h (NQO1) (NQO1; 5 μM): 7.62
Relative mRNA expression level at 4 h (NQO1) (NQO1; 10 μM): 1.78
Relative mRNA expression level at 24 h (NQO1) (NQO1; 10 μM): 8.77
reduction of PM-induced cytokine secretion (IL-8 paragraph) (IL-8; A549, concentration not given): twofold
Relative mRNA expression level at 4 h (HMOX) (HMOX; 2 μM): 9.48
Relative mRNA expression level at 24 h (HMOX) (HMOX; 2 μM): 2.63
Relative mRNA expression level at 4 h (HMOX) (HMOX; 5 μM): 22.44
Relative mRNA expression level at 24 h (HMOX) (HMOX; 5 μM): 5.23
Relative mRNA expression level at 4 h (HMOX) (HMOX; 10 μM): 27.43
Relative mRNA expression level at 24 h (HMOX) (HMOX; 10 μM): 7.12

CC1=C(CO)C(=O)O[C@@H]([C@@H](C)[C@H]2CC[C@H]3[C@@H]4C[C@H]5O[C@]56[C@@H](O)C=CC(=O)[C@]6(C)[C@H]4CC[C@]23C)C1 [Withaferin A, withaferin A]
Nrf-2 activity, Average (Nrf2; Conc. final 0.28 μg/ml): 32053 relative units of luciferase fluorescence
effect on PM-induced IL-6 secretion (in words) (IL-6 [1]; 0.3 μg/ml): lowered
IL-6 (IL-6 [1]; [4]): 19.4 pg/mL
IL-6 % of PM + DMSO (IL-6 [1]; [4]): 77%
toxicity to BEAS-2B cells (BEAS-2B cells): toxic
effect on PM-induced MCP-1 secretion (in words) (MCP-1): significant decrease
MCP-1 (MCP-1; 0.3125 μg/ml + PM 100 μg/ml): 632 pg/mL
MCP-1 % of PM + DMSO (MCP-1; 0.3125 μg/ml + PM 100 μg/ml): 66%
effect on PM-induced IL-6 secretion (in words) (IL-6 [2]; A549): decrease
IL-6 (IL-6 [2]; 0.3125 μg/ml + PM 100 μg/ml): 3.5 pg/mL
IL-6 % of PM + DMSO (IL-6 [2]; 0.3125 μg/ml + PM 100 μg/ml): 29%
toxicity to A549 cells (A549 cells): toxic
inhibition of IL-8 secretion (in words) (IL-8; A549, PM-induced, 0.31 μg/ml): highest inhibition of the pure compounds
IL-8 (IL-8; 0.3125 μg/ml + PM 100 μg/ml): 106.7 pg/mL
IL-8 % of PM + DMSO (IL-8; 0.3125 μg/ml + PM 100 μg/ml): 39%
PGE2 (PGE2; 0.3125 μg/ml + PM 100 μg/ml): 33.2 pg/mL
PGE2 % of PM + DMSO (PGE2; 0.3125 μg/ml + PM 100 μg/ml): 87%
